The subject of experiment [1] is SUDHL5. In words: Induction of caspase-3/7 activity, SUDHL5 (Assay 4). The format is cell-based. Conditions: SUDHL5 cells. The procedure, abridged: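 DLBCL lines treated with compounds for 3 h at 37° C.; caspase-3/7 activity read by Caspase-Glo 3/7 luminescence. Medium-only background subtracted; EC50 fitted with bottom fixed at 1 and top set to reference compound's maximal induction.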

Experiment [2] deals with SUDHL5. Briefly: Antiproliferation assay SUDHL5 (Assay 7). The format is cell-based. Conditions: SUDHL5 cells, CellTiter-Glo, median, read-out: IC50 Antiproli SUDHL5 [M] (median). The procedure, abridged: (§1)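 Cells were exposed to compounds for 72 h at 37 °C in a humidified incubator, with rim wells excluded. Viability was read by CellTiter-Glo luminescence after a 10 min incubation. A parallel day 0 plate, read the same way, gave the time-zero baseline.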
A general note: Cellular ATP, detected with luciferase, serves as a proxy for viable cell number.

The target in another experiment is BCL-2 (Homo sapiens (Human), UniProt P10415). In words: Protein-protein interaction assay BCL-2/Bad BH3 peptide (BCL-2 assay), TR-FRET. The format is binding. Conditions: BCL-2/Bad BH3 peptide TR-FRET; median. As for the experimental part:
Assay 3 Protein-Protein Interaction assay: BCL-2/Bad BH3 Peptide (BCL-2 Assay)
The dose-dependent inhibition by the compounds described in this invention of the interaction between BCL-2 and the BH3 domain of Bad (both human) was determined using a steady state binding competition assay with time-resolved fluorescence energy transfer (TR-FRET) readout. For that purpose BCL-2 (amino acids 1-211, C-terminal fused to a hexahistidine (6× His) tag (SEQ ID 5) and a synthetic Bad BH3-derived peptide of sequence Biotin-PEG2-PEG2-NLWAAQRYGRELRR-Nle-SDEFVDSFKK-amide (SEQ ID 4) served as protein receptor and tracer ligand respectively. The recombinant BCL-2 protein (expressed in E. coli) was purchased from BPS Bioscience (San Diego, Calif., USA). The Bad BH3-derived peptide can be obtained from e.g. Biosyntan (Berlin, Germany).
In the assay 11 different concentrations of each compound (0.1 nM, 0.33 nM, 1.1 nM, 3.8 nM, 13 nM, 44 nM, 0.15 μM, 0.51 μM, 1.7 μM, 5.9 μM and 20 μM) were typically measured as duplicates in the same microtiter plate. For that, 100-fold concentrated DMSO solutions were prepared by serial dilutions (1:3.4) of a 2 mM stock solution in a clear, 384-well microtiter plate (Greiner Bio-One, Frickenhausen, Germany). From there, 50 nl were transferred in a dark test plate (Greiner Bio-One, Frickenhausen, Germany). The assay was initiated by addition of 2 μl of a 2,5-fold concentrated His-BCL-2 solution (usually for a 1 nM end concentration in 5 μl reaction volume) in aqueous assay buffer [50 mM Tris/HCl pH 7, 100 mM sodium chloride (NaCl), 50 mM potassium fluoride (KF), 0.005% Tween-20, 2 mM DTT, 0.1% bovine gamma globulin (BGG)] to the compounds in the assay plate. This was followed by a 10-minute incubation step at 22° C. for pre-equilibration of the putative complex between His-BCL-2 and the compounds. After that, 3 μl of a 1.67-fold concentrated solution (in assay buffer) consisting of Bad BH3-derived peptide (1 nM end concentration) and TR-FRET detection reagents [1.67 nM anti-His-Eu cryptate and 1.67 nM streptavidin-XL665 (both from Cisbio Bioassays, Codolet, France)], were added.
The mixture was incubated in the dark for one hour at 22° C. and then overnight at 4° C. The formation of BCL-2/Bad complexes was determined by measuring the resonance energy transfer of the anti-His-Eu-cryptate antibody to the streptavidin-XL665 present in the reaction. For that purpose, the fluorescence emission at 620 nm and 665 nm after excitation at 330-350 nm was measured in a TR-FRET measuring instrument, for instance a Rubystar or a Pherastar (both from BMG Lab Technologies, Offenburg, Germany) or a Viewlux (Perkin-Elmer). The ratio of the emission at 665 nm and at 622 nm was used as indicator of the amount of BCL-2/Bad complexes present.
The resulting data (ratio) were normalized, taking 0% inhibition as the mean value of control measurements (usually 32 data points) where all reagents were included. In this case 50 nl DMSO were used instead of compounds. A 100% inhibition corresponded to the mean value of control measurements (usually 32 data points) where all reagents except BCL-2 were included. IC50 values were determined by regression analysis based on a 4 parameter equation (minimum, maximum, IC50, Hill; Y=Max+(Min−Max)/(1+(X/IC50)^Hill) using the Screener Software (Genedata).
In general terms: TR-FRET usually uses a lanthanide donor and a delayed reading to cut background.

For a further experiment, the system named is MV-4-11. Briefly: Antiproliferation assay MV-4-11 (Assay 7). It counts as cell-based. The following applies: MV-4-11 cells, 72 h, CellTiter-Glo, single determinations, read-out: IC50 Antiproli MV-4-11. The procedure, abridged:
as §1

[3] abbreviates: Homo sapiens, SU-DHL-5, 3 h, Caspase-Glo 3/7, median.

The structures appear in SMILES notation. Where “and” joins values, the source holds several entries; their conditions need not be identical. Equal values may be shown once. Where a name gives a salt, the structure may show the parent alone. Read-outs that look alike come from different tables or passages of the source.

BCL-2, sequence (P10415 1-211): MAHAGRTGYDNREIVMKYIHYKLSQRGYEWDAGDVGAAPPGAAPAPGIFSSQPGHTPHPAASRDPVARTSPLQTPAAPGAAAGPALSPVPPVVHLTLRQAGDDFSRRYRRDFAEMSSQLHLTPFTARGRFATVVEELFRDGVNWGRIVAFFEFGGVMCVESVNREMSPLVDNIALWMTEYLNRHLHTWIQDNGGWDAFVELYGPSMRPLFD

As to `Cc1c2c(nn1C)COCCCCn1c(C(=O)O)c(CCCOc3cccc4ccccc34)c3ccc(F)c-2c31` (racemic) [Example 2, (rac)-4-fluoro-2,3-dimethyl-7-[3-(naphthalen-1-yloxy)propyl]-2,10,11,12,13,15-hexahydro-pyrazolo[4′,3′:9,10][1,6]oxazacycloundecino[8,7,6-hi]indole-8-carboxylic acid], it took 600 nM to reach a half-maximal effect in the experiment on SUDHL5 [1] (setting [3]) (EC50). For the same molecule, the IC50 (usually the concentration that gives 50% inhibition) in the experiment on SUDHL5 [2] (Homo sapiens, SU-DHL-5, 72 h) is 1.4e-06 M.

In the case of `CCc1c2c(nn1C)COC/C=C\Cn1c(C(=O)O)c(CCCOc3cccc4ccccc34)c3ccc(F)c-2c31` (racemic) [Example 5, (rac)-(11Z)-3-ethyl-4-fluoro-2-methyl-7-[3-(naphthalen-1-yloxy)propyl]-2,10,13,15-tetrahydro-pyrazolo[4′,3′:9,10][1,6]oxazacycloundecino[8,7,6-hi]indole-8-carboxylic acid], the IC50 was above 20 µM against BCL-2 and 1.7e-06 M in the experiment on SUDHL5 [2] (Homo sapiens, SU-DHL-5, 72 h). Moreover, a half-maximal effect with SUDHL5 [1] (setting [3]) (EC50) was put at 1000 nM.

As for `Cc1c2c(nn1C)COCCCCn1c(C(=O)O)c(CCCOc3ccc(F)c4ccccc34)c3ccc(F)c-2c31` (racemic) [Example 15, (rac)-13-fluoro-1-(3-((4-fluoronaphthalen-1-yl)oxy)propyl)-11,12-dimethyl-4,5,6,7,9,11-hexahydropyrazolo[4′,3′:9,10][1]oxa[6]azacycloundecino[8,7,6-hi]indole-2-carboxylic acid], the IC50 at BCL-2 is above 20 µM; in the experiment on SUDHL5 [2] (Homo sapiens, SU-DHL-5, 72 h) it was 5.3e-07 M. In the experiment on SUDHL5 [1] (setting [3]), it took 970 nM to reach a half-maximal effect (EC50).

With `CCc1c2c(nn1C)CN(C)CCCCn1c(C(=O)O)c(CCCOc3cccc4c3CCC4)c3ccc(F)c-2c31` (racemic) [Example 51, (rac)-7-[3-(2,3-dihydro-1H-inden-4-yloxy)propyl]-3-ethyl-4-fluoro-2,14-dimethyl-10,11,12,13,14,15-hexahydro-2H-pyrazolo[3′,4′:8,9][1,6]diazacycloundecino[10,11,1-hi]indole-8-carboxylic acid], the IC50 was above 20 µM on BCL-2 and 2.6e-07 M with SUDHL5 [2] (Homo sapiens, SU-DHL-5, 72 h). For the same molecule, in the experiment with SUDHL5 [1] (setting [3]), the EC50 (in general, the concentration needed to bring the measured effect to its halfway point) worked out at 230 nM.

For `Cc1c2c(nn1C)COCCCCn1c(C(=O)O)c(CCCOc3cccc4ccccc34)c3ccc(F)c-2c31` (single isomer, unassigned; enantiomer 1) [Example 3, 4-fluoro-2,3-dimethyl-7-[3-(naphthalen-1-yloxy)propyl]-2,10,11,12,13,15-hexahydropyrazolo-[4′,3′:9,10][1,6]oxazacycloundecino[8,7,6-hi]indole-8-carboxylic acid-N-ethylethanamine salt (enantiomer 1)], in the experiment with SUDHL5 [1] (3 h, Caspase-Glo 3/7, median), a half-maximal effect (EC50) was put at 650 nM. Further, in the experiment with SUDHL5 [2] (72 h), the IC50 stood at 6.4e-07 M.

`CCc1c2c(nn1C)COCCCCn1c(C(=O)O)c(CCCOc3cccc4ccccc34)c3ccc(F)c-2c31` (single isomer, unassigned; enantiomer 1) [Example 7, 3-ethyl-4-fluoro-2-methyl-7-{3-[(naphthalen-1-yl)oxy]propyl}-2,10,11,12,13,15-hexahydro-pyrazolo[4′,3′:9,10][1,6]oxazacycloundecino[8,7,6-hi]indole-8-carboxylic acid-N-ethylethanamine salt (enantiomer 1)]: in the experiment on SUDHL5 [1] (3 h, Caspase-Glo 3/7, median), a half-maximal effect (EC50) was put at 370 nM. Besides, the IC50 with SUDHL5 [2] (72 h) was 7.5e-07 M; with MV-4-11 (listed as 07) it was 2370 nM and 1940 nM.

In the case of `Cc1c2c(nn1C)COCCCCn1c(C(=O)O)c(CCCOc3cccc4cc(F)ccc34)c3ccc(F)c-2c31` (single isomer, unassigned; enantiomer 1) [Example 13, 4-fluoro-7-{3-[(6-fluoronaphthalen-1-yl)oxy]propyl}-2,3-dimethyl-2,10,11,12,13,15-hexahydro-pyrazolo[4′,3′:9,10][1,6]oxazacycloundecino[8,7,6-hi]indole-8-carboxylic acid-N-ethylethanamine salt (enantiomer 1)], the response in the experiment on SUDHL5 [1] (3 h, Caspase-Glo 3/7, median) was half-maximal at 340 nM (EC50). Besides, the IC50 is 2.9e-07 M in the experiment on SUDHL5 [2] (72 h); 679 nM and 412 nM with MV-4-11.

In turn, `CCc1c2c(nn1C)COCCCCn1c(C(=O)O)c(CCCOc3cccc4cc(F)ccc34)c3ccc(F)c-2c31` (single isomer, unassigned; enantiomer 1) [Example 22, 3-ethyl-4-fluoro-7-{3-[(6-fluoronaphthalen-1-yl)oxy]propyl}-2-methyl-2,10,11,12,13,15-hexahydropyrazolo[4′,3′:9,10][1,6]oxazacycloundecino[8,7,6-hi]indole-8-carboxylic acid-N-ethylethanamine salt (enantiomer 1)] showed an EC50 with SUDHL5 [1] (3 h, Caspase-Glo 3/7, median) of 210 nM. Further, the IC50 in the experiment on SUDHL5 [2] (72 h) was 2.7e-07 M.

Turning to `CCc1c2c(nn1C)COCCCCn1c(C(=O)O)c(CCCOc3cccc4cc(F)ccc34)c3ccc(F)c-2c31` (single isomer, unassigned; enantiomer 1) [Example 24, 3-ethyl-4-fluoro-7-{3-[(6-fluoronaphthalen-1-yl)oxy]propyl}-2-methyl-2,10,11,12,13,15-hexahydropyrazolo[4′,3′:9,10][1,6]oxazacycloundecino[8,7,6-hi]indole-8-carboxylic acid (enantiomer 1)], the values for the IC50 against BCL-2 and in the experiment with SUDHL5 [2] (72 h) were above 20 µM and 3.2e-07 M, respectively.

Consider `CCc1c2c(nn1C)COCCCCn1c(C(=O)O)c(CCCOc3ccc(F)c4ccccc34)c3ccc(F)c-2c31` (single isomer, unassigned; enantiomer 1) [Example 27, 3-ethyl-4-fluoro-7-{3-[(4-fluoronaphthalen-1-yl)oxy]propyl}-2-methyl-2,10,11,12,13,15-hexahydropyrazolo[4′,3′:9,10][1,6]oxazacycloundecino[8,7,6-hi]indole-8-carboxylic acid-N-ethylethanamine salt (enantiomer 1)], for which a half-maximal response in the experiment on SUDHL5 [1] (3 h, Caspase-Glo 3/7, median) (EC50) required 660 nM. The half-inhibitory concentration (IC50) in the experiment on SUDHL5 [2] (72 h) turned out to be 6.2e-07 M.

With `CCc1nn(C)c2c1-c1c(F)ccc3c(CCCOc4cccc5cc(F)ccc45)c(C(=O)O)n(c13)CCCCOC2` (single isomer, unassigned; enantiomer 1) [Example 39, 3-ethyl-4-fluoro-7-{3-[(6-fluoronaphthalen-1-yl)oxy]propyl}-1-methyl-1,10,11,12,13,15-hexahydropyrazolo[4′,3′:9,10][1,6]oxazacycloundecino[8,7,6-hi]indole-8-carboxylic acid-N-ethylethanamine salt (enantiomer 1)], a half-maximal effect in the experiment with SUDHL5 [1] (3 h, Caspase-Glo 3/7, median) (EC50) was put at 560 nM. The IC50 with SUDHL5 [2] (72 h) was found to be 6.8e-07 M.

In the experiment with SUDHL5 [1] (3 h, Caspase-Glo 3/7, median), `CCc1c2c(nn1C)COCCCCn1c(C(=O)O)c(CCCOc3cccc4cc(F)ccc34)c3ccc(F)c-2c31` (single isomer, unassigned; enantiomer 2) [Example 23, 3-ethyl-4-fluoro-7-{3-[(6-fluoronaphthalen-1-yl)oxy]propyl}-2-methyl-2,10,11,12,13,15-hexahydropyrazolo[4′,3′:9,10][1,6]oxazacycloundecino[8,7,6-hi]indole-8-carboxylic acid-N-ethylethanamine salt (enantiomer 2)] gave an EC50 of 2700 nM. The IC50 in the experiment with SUDHL5 [2] (72 h) was found to be 1.4e-06 M; with MV-4-11, 15500 nM.
